# In PubChem BioAssay (NCI):
#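 The concentration for 50% growth inhibition is given as GI50. TGI: total growth inhibition.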
# Experiments:
# Experiment in all cases: NCI-60 cell line screen, 384-well format
# [1] = system: HOP-62 NSCLC
# [2] = system: HCC-2998 colon
# [3] = system: NCI-H322M lung
# [4] = system: SK-MEL-28 melanoma
# [5] = system: MDA-MB-231 breast
# [6] = system: MCF7 breast
# [7] = system: HCT-15 colon
# [8] = system: RPMI-8226 leukemia
# [9] = system: OVCAR-5 ovarian
# [10] = system: SR leukemia
# [11] = system: NCI-H226 lung
# [12] = system: HS 578T breast
# [13] = system: ACHN renal
# [14] = system: HT29 colon
# [15] = system: NCI-H23 lung
# [16] = system: SNB-19 CNS
# [17] = system: SK-MEL-5 melanoma
# [18] = system: NCI/ADR-RES ovarian
# [19] = system: UACC-62 melanoma
# [20] = system: NCI-H460 NSCLC
# [21] = system: MOLT-4 leukemia
# [22] = system: 786-0 renal
# [23] = system: A498 renal
# [24] = system: MDA-MB-468 breast
# [25] = system: NCI-H522 lung
# [26] = system: RXF 393 renal
# [27] = system: KM12 colon
# [28] = system: SW-620 colon
# [29] = system: HOP-92 NSCLC
# [30] = system: OVCAR-3 ovarian
# [31] = system: CCRF-CEM leukemia
# [32] = system: SF-268 CNS
# [33] = system: PC-3 prostate
# [34] = system: OVCAR-4 ovarian
# [35] = system: SF-295 CNS
# [36] = system: COLO 205 colon
# [37] = system: T-47D breast
# [38] = system: SN12C renal
# [39] = system: A549 NSCLC
# [40] = system: UACC-257 melanoma
# [41] = system: K-562 leukemia
# [42] = system: BT-549 breast
# [43] = system: CAKI-1 renal
# [44] = system: SF-539 CNS
# [45] = system: MDA-MB-435 melanoma
# [46] = system: IGROV1 ovarian
# [47] = system: MALME-3M melanoma
# [48] = system: SK-OV-3 ovarian
# [49] = system: LOX IMVI melanoma
# [50] = system: TK-10 renal
# [51] = system: UO-31 renal
# [52] = system: DU-145 prostate
# [53] = system: U251 glioblastoma
# [54] = system: EKVX NSCLC
# [55] = system: M14 melanoma
# [56] = system: OVCAR-8 ovarian
# [57] = system: HL-60(TB) leukemia
# [58] = system: SNB-75 CNS
structure (smiles),measurement,setting,value
NCC(=O)Nc1ccc(-n2nc(C(F)(F)F)cc2-c2ccc3c(ccc4ccccc43)c2)cc1,GI50,[1],1130 nM
same,TGI,[1],2360 nM
same,GI50,[2],1060 nM
same,TGI,[2],2250 nM
same,GI50,[3],1420 nM
same,TGI,[3],2740 nM
same,GI50,[4],1120 nM
same,TGI,[4],2320 nM
same,GI50,[5],405 nM
same,TGI,[5],2010 nM
same,GI50,[6],904 nM
same,TGI,[6],2120 nM
same,GI50,[7],82.1 nM
same,TGI,[7],1750 nM
same,GI50,[8],213 nM
same,TGI,[8],686 nM
same,GI50,[9],1660 nM
same,TGI,[9],3040 nM
same,GI50,[10],30.6 nM
same,TGI,[10],104 nM
same,GI50,[11],1600 nM
same,TGI,[11],2960 nM
same,GI50,[12],1760 nM
same,TGI,[12],3160 nM
same,GI50,[13],1180 nM
same,TGI,[13],2430 nM
same,GI50,[14],1090 nM
same,TGI,[14],2290 nM
same,GI50,[15],1760 nM
same,TGI,[15],3150 nM
same,GI50,[16],1520 nM
same,TGI,[16],2860 nM
same,GI50,[17],1120 nM
same,TGI,[17],2330 nM
same,GI50,[18],1070 nM
same,TGI,[18],2250 nM
same,GI50,[19],1230 nM
same,TGI,[19],2480 nM
same,GI50,[20],296 nM
same,TGI,[20],1440 nM
same,GI50,[21],44.1 nM
same,TGI,[21],148 nM
same,GI50,[22],1020 nM
same,TGI,[22],2200 nM
same,GI50,[23],1550 nM
same,TGI,[23],2900 nM
same,GI50,[24],1530 nM
same,TGI,[24],2870 nM
same,GI50,[25],1070 nM
same,TGI,[25],2270 nM
same,GI50,[26],1270 nM
same,TGI,[26],2530 nM
same,GI50,[27],1140 nM
same,TGI,[27],2370 nM
same,GI50,[28],965 nM
same,TGI,[28],2160 nM
same,GI50,[29],1120 nM
same,TGI,[29],2330 nM
same,GI50,[30],1570 nM
same,TGI,[30],2920 nM
same,GI50,[31],218 nM
same,TGI,[31],1720 nM
same,GI50,[32],1050 nM
same,TGI,[32],2240 nM
same,GI50,[33],1190 nM
same,TGI,[33],2430 nM
same,GI50,[34],1620 nM
same,TGI,[34],2980 nM
same,GI50,[35],766 nM
same,TGI,[35],2040 nM
same,GI50,[36],535 nM
same,TGI,[36],1800 nM
same,GI50,[37],1540 nM
same,TGI,[37],2880 nM
same,GI50,[38],1420 nM
same,TGI,[38],2740 nM
same,GI50,[39],1040 nM
same,TGI,[39],2230 nM
same,GI50,[40],1250 nM
same,TGI,[40],2510 nM
same,GI50,[41],218 nM
same,TGI,[41],1520 nM
same,GI50,[42],1330 nM
same,TGI,[42],2620 nM
same,GI50,[43],1180 nM
same,TGI,[43],2430 nM
same,GI50,[44],1160 nM
same,TGI,[44],2400 nM
same,GI50,[45],1110 nM
same,TGI,[45],2330 nM
same,GI50,[46],1090 nM
same,TGI,[46],2300 nM
same,GI50,[47],1160 nM
same,TGI,[47],2390 nM
same,GI50,[48],1570 nM
same,TGI,[48],2920 nM
same,GI50,[49],396 nM
same,TGI,[49],1470 nM
same,GI50,[50],1320 nM
same,TGI,[50],2610 nM
same,GI50,[51],1390 nM
same,TGI,[51],2740 nM
same,GI50,[52],1310 nM
same,TGI,[52],2610 nM
same,GI50,[53],1190 nM
same,TGI,[53],2460 nM
same,GI50,[54],1770 nM
same,TGI,[54],3170 nM
same,GI50,[55],1270 nM
same,TGI,[55],2540 nM
same,GI50,[56],1130 nM
same,TGI,[56],2360 nM
same,GI50,[57],272 nM
same,TGI,[57],1170 nM
same,GI50,[58],1080 nM
same,TGI,[58],2290 nM
